Legend:
crabgrass = experiment: Test B pre/postemergence crabgrass; format: in vivo, Digitaria sanguinalis
How it was run: (§1)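 Response is a visual 0-to-10 score relative to untreated plants, where 0 means no effect and 10 means complete control, taken twelve to sixteen days after application. Treatments went onto soil at planting and onto foliage of 1- to 4-leaf plants, using a surfactant-containing non-phytotoxic solvent.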

cocklebur = experiment: Test B pre/postemergence cocklebur; format: in vivo, Xanthium strumarium
How it was run: as §1

purple nutsedge = experiment: Test B pre/postemergence purple nutsedge; format: in vivo, Cyperus rotundus; details: Preemergence
How it was run: as §1

wheat = experiment: Test B pre/postemergence wheat; format: in vivo, Triticum aestivum
How it was run: as §1

wild oat = experiment: Test B pre/postemergence wild oat; format: in vivo, Avena fatua
How it was run: as §1

morningglory = experiment: Test B pre/postemergence morningglory; format: in vivo, Ipomoea hederacea
How it was run: as §1

smallflower flatsedge = experiment: Test B flood test smallflower flatsedge; format: in vivo, Cyperus difformis
How it was run: (§2)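 Each value is a visual injury score relative to controls, with 10 meaning complete control and 0 no effect. Evaluation took place twelve to sixteen days after the 2-leaf-stage plants were treated and kept in the greenhouse.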

giant foxtail = experiment: Test B pre/postemergence giant foxtail; format: in vivo, Setaria faberii
How it was run: as §1

soybean = experiment: Test B pre/postemergence soybean; format: in vivo, Glycine max
How it was run: as §1

blackgrass = experiment: Test B pre/postemergence blackgrass; format: in vivo, Alopecurus myosuroides
How it was run: as §1

duck salad = experiment: Test B flood test duck salad; format: in vivo, Heteranthera limosa
How it was run: as §2

velvetleaf = experiment: Test B pre/postemergence velvetleaf; format: in vivo, Abutilon theophrasti
How it was run: as §1

bamyardgrass = experiment: Test B flood test barnyardgrass; format: in vivo, Echinochloa crus-galli
How it was run: as §2

corn = experiment: Test B pre/postemergence corn; format: in vivo, Zea mays
How it was run: as §1

bedstraw = experiment: Test B pre/postemergence bedstraw; format: in vivo, Galium aparine
How it was run: as §1

surinam grass = experiment: Test B pre/postemergence surinam grass; format: in vivo, Brachiaria decumbens
How it was run: as §1

rice = experiment: Test B flood test rice; format: in vivo, Oryza sativa
How it was run: as §2

[1] = Postemergence, Rate 250 g/ha, scale 0 to 10, 0 no effect, 10 complete control
[2] = Postemergence, Rate 1000 g/ha, scale 0 to 10 (0 no effect, 10 complete control)
[3] = Preemergence, Rate 125 g/ha, scale 0 to 10 (0 no effect, 10 complete control)
[4] = Preemergence, Rate 250 g/ha, scale of 0 to 10 where 0 is no effect and 10 is complete control
[5] = Preemergence, Rate 500 g/ha, scale 0 (no effect) to 10 (complete control)
[6] = Rate 125 g/ha, Postemergence, scale 0 to 10, 0 no effect, 10 complete control
[7] = Rate 500 g/ha, Postemergence, 0 to 10 scale (0 no effect, 10 complete control)
[8] = Rate 1000 g/ha, Preemergence, scale 0 to 10 (0 no effect, 10 complete control)
[9] = Rate 125 g/ha, Postemergence section (flood test species), scale 0 to 10, 0 no effect, 10 complete control
[10] = flood test, listed under Postemergence, Rate 250 g/ha, scale 0 to 10, 0 no effect, 10 complete control
[11] = Rate 500 g/ha, Postemergence section of Table B, 0 to 10 scale (0 no effect, 10 complete control)

With `CC(C)N(C(=O)n1oc(=O)n(-c2cc(Cl)cc(Cl)c2)c1=O)C1=CCOCC1` [Compound 9] the “Crabgrass plant response rating” value (crabgrass; [1]) was 0, the “Crabgrass plant response rating” value (crabgrass; [2]) was 0 and the “Plant response rating, Crabgrass” value (crabgrass; [3]) was 3. The “Plant response rating, Crabgrass” value (crabgrass; [4]) was 0, the “Crabgrass plant response rating” value (crabgrass; [5]) was 3 and the “Crabgrass plant response rating” value (crabgrass; [6]) was 0. For the same compound, the “Crabgrass plant response rating” value (crabgrass; [7]) was 0, the “Plant response rating, Crabgrass” value (crabgrass; [8]) was 3 and the “Cocklebur plant response rating” value (cocklebur; [1]) was 0. The “Cocklebur plant response rating” value (cocklebur; [2]) was 4, the “Plant response rating, Cocklebur” value (cocklebur; [3]) was 0 and the “Plant response rating, Cocklebur” value (cocklebur; [4]) was 0. The “Cocklebur plant response rating” value (cocklebur; [5]) was 0, the “Cocklebur plant response rating” value (cocklebur; [6]) was 0 and the “Cocklebur plant response rating” value (cocklebur; [7]) was 0. For the same compound, the “Plant response rating, Cocklebur” value (cocklebur; [8]) was 0, the “Plant response rating, Nutsedge” value (purple nutsedge; Rate 125 g/ha, scale 0 to 10 (0 no effect, 10 complete control)) was 0 and the “Plant response rating, Nutsedge” value (purple nutsedge; Rate 250 g/ha, scale of 0 to 10 where 0 is no effect and 10 is complete control) was 0. For the same compound, the “Nutsedge plant response rating” value (purple nutsedge; Rate 500 g/ha, scale 0 (no effect) to 10 (complete control)) was 0, the “Plant response rating, Nutsedge” value (purple nutsedge; Rate 1000 g/ha, scale 0 to 10 (0 no effect, 10 complete control)) was 0 and the “Wheat plant response rating” value (wheat; [1]) was 0. The “Wheat plant response rating” value (wheat; [2]) was 0, the “Plant response rating, Wheat” value (wheat; [3]) was 0 and the “Plant response rating, Wheat” value (wheat; [4]) was 0. The “Wheat plant response rating” value (wheat; [5]) was 0, the “Wheat plant response rating” value (wheat; [6]) was 0 and the “Plant response rating, Wheat” value (wheat; [8]) was 0. The “Wild oats plant response rating” value (wild oat; [1]) was 0, the “Wild oats plant response rating” value (wild oat; [2]) was 0 and the “Plant response rating, Wild oats” value (wild oat; [3]) was 0. For the same compound, the “Plant response rating, Wild oats” value (wild oat; [4]) was 0, the “Wild oats plant response rating” value (wild oat; [5]) was 0 and the “Wild oats plant response rating” value (wild oat; [6]) was 0. For the same compound, the “Plant response rating, Wild oats” value (wild oat; [8]) was 0, the “Morningglory plant response rating” value (morningglory; [1]) was 0 and the “Morningglory plant response rating” value (morningglory; [2]) was 2. The “Plant response rating, Morningglory” value (morningglory; [3]) was 0, the “Plant response rating, Morningglory” value (morningglory; [4]) was 0 and the “Morningglory plant response rating” value (morningglory; [5]) was 0. The “Morningglory plant response rating” value (morningglory; [6]) was 0, the “Morningglory plant response rating” value (morningglory; [7]) was 0 and the “Plant response rating, Morningglory” value (morningglory; [8]) was 0. For the same compound, the “S. Flatsedge plant response rating” value (smallflower flatsedge; [2]) was 0, the “S. Flatsedge plant response rating” value (smallflower flatsedge; [9]) was 0 and the “S. Flatsedge plant response rating” value (smallflower flatsedge; [10]) was 0. The “Giant foxtail plant response rating” value (giant foxtail; [1]) was 0, the “Giant foxtail plant response rating” value (giant foxtail; [2]) was 0 and the “Plant response rating, Giant foxtail” value (giant foxtail; [3]) was 0. The “Plant response rating, Giant foxtail” value (giant foxtail; [4]) was 0, the “Giant foxtail plant response rating” value (giant foxtail; [5]) was 3 and the “Giant foxtail plant response rating” value (giant foxtail; [6]) was 0. For the same compound, the “Giant foxtail plant response rating” value (giant foxtail; [7]) was 0, the “Plant response rating, Giant foxtail” value (giant foxtail; [8]) was 7 and the “Soybean plant response rating” value (soybean; [1]) was 0. For the same compound, the “Soybean plant response rating” value (soybean; [2]) was 1, the “Plant response rating, Soybean” value (soybean; [3]) was 0 and the “Plant response rating, Soybean” value (soybean; [4]) was 0. The “Soybean plant response rating” value (soybean; [5]) was 0, the “Soybean plant response rating” value (soybean; [6]) was 0 and the “Plant response rating, Soybean” value (soybean; [8]) was 0. The “Blackgrass plant response rating” value (blackgrass; [1]) was 0, the “Blackgrass plant response rating” value (blackgrass; [2]) was 3 and the “Plant response rating, Blackgrass” value (blackgrass; [3]) was 0. The “Plant response rating, Blackgrass” value (blackgrass; [4]) was 0, the “Blackgrass plant response rating” value (blackgrass; [5]) was 0 and the “Blackgrass plant response rating” value (blackgrass; [6]) was 0. The “Blackgrass plant response rating” value (blackgrass; [7]) was 2, the “Plant response rating, Blackgrass” value (blackgrass; [8]) was 0 and the “Ducksalad plant response rating” value (duck salad; [2]) was 0. The “Ducksalad plant response rating” value (duck salad; [9]) was 0, the “Ducksalad plant response rating” value (duck salad; [11]) was 0 and the “Ducksalad plant response rating” value (duck salad; [10]) was 0. For the same compound, the “Velvetleaf plant response rating” value (velvetleaf; [1]) was 0, the “Velvetleaf plant response rating” value (velvetleaf; [2]) was 0 and the “Plant response rating, Velvetleaf” value (velvetleaf; [3]) was 0. The “Plant response rating, Velvetleaf” value (velvetleaf; [4]) was 0, the “Velvetleaf plant response rating” value (velvetleaf; [5]) was 0 and the “Velvetleaf plant response rating” value (velvetleaf; [6]) was 0. The “Plant response rating, Velvetleaf” value (velvetleaf; [8]) was 0, the “Barnyardgrass plant response rating” value (bamyardgrass; [2]) was 0 and the “Barnyardgrass plant response rating” value (bamyardgrass; [9]) was 0. The “Barnyardgrass plant response rating” value (bamyardgrass; [11]) was 0, the “Barnyardgrass plant response rating” value (bamyardgrass; [10]) was 0 and the “Corn plant response rating” value (corn; [1]) was 0. The “Corn plant response rating” value (corn; [2]) was 0, the “Plant response rating, Corn” value (corn; [3]) was 0 and the “Plant response rating, Corn” value (corn; [4]) was 0. The “Corn plant response rating” value (corn; [5]) was 0, the “Corn plant response rating” value (corn; [6]) was 0 and the “Corn plant response rating” value (corn; [7]) was 0. For the same compound, the “Plant response rating, Corn” value (corn; [8]) was 3, the “Bedstraw plant response rating” value (bedstraw; [1]) was 0 and the “Plant response rating, Bedstraw” value (bedstraw; [3]) was 0. For the same compound, the “Plant response rating, Bedstraw” value (bedstraw; [4]) was 0, the “Bedstraw plant response rating” value (bedstraw; [5]) was 0 and the “Bedstraw plant response rating” value (bedstraw; [6]) was 0. The “Bedstraw plant response rating” value (bedstraw; [7]) was 0, the “Plant response rating, Bedstraw” value (bedstraw; [8]) was 0 and the “B. signalgrass plant response rating” value (surinam grass; [1]) was 0. For the same compound, the “B. signalgrass plant response rating” value (surinam grass; [2]) was 0, the “Plant response rating, B. signalgrass” value (surinam grass; [3]) was 0 and the “Plant response rating, B. signalgrass” value (surinam grass; [4]) was 0. The “B. signalgrass plant response rating” value (surinam grass; [5]) was 0, the “B. signalgrass plant response rating” value (surinam grass; [6]) was 0 and the “B. signalgrass plant response rating” value (surinam grass; [7]) was 0. The “Plant response rating, B. signalgrass” value (surinam grass; [8]) was 0, the “Rice plant response rating” value (rice; [2]) was 0 and the “Rice plant response rating” value (rice; [9]) was 0. For the same compound, the “Rice plant response rating” value (rice; [11]) was 0 and the “Rice plant response rating” value (rice; [10]) was 0.

Reference: US6737383B1, “Herbicidal oxadiazolidines” (priority 1999, dated 2004)
